Measured values: patent US8828988B2 (Tetraphase Pharmaceuticals, Inc., priority 2009, dated 2014)
Values after ≈ are worked out from the molar mass of the structure shown. Read-outs that look alike come from different tables or passages of the source.

What was measured:
[1] = test system: tet(M) strains of S. pneumoniae; test: MIC, CLSI methodology, recent clinical isolates (Example 21); format: cell-based; conditions: Streptococcus pneumoniae, read-out: MIC against tet(M) strains of S. pneumoniae
Method: (§1) The assays were run as follows.
(§2) The antibacterial activities of Compounds MIC values were determined according to CLSI methodology. Recent clinical isolates were obtained from Eurofins-Medinet. Antibiotics were obtained from standard commercial sources.

[2] = test system: tet(M) and tet(S) strains of E. faecalis; test: as above; format: cell-based; conditions: Enterococcus faecalis, read-out: MIC against tet(M) and tet(S) strains of E. faecalis
Method: as §1, §2

[3] = test system: tet(K) strains of S. aureus; test: as above; format: cell-based; conditions: Staphylococcus aureus, read-out: MIC against tet(K) strains of S. aureus
Method: as §1, §2

[4] = test system: tet(M) strains of S. aureus; test: as above; format: cell-based; conditions: Staphylococcus aureus, read-out: MIC against tet(M) strains of S. aureus
Method: as §1, §2

[5] = test system: Klebsiella pneumoniae KP109, ATCC 13883; test: MIC assay, KP109; format: cell-based; conditions: ATCC13883, Table 9, read-out: MIC Klebsiella pneum ATCC 13883
[6] = test system: Staphylococcus aureus SA158, tetracycline-resistant tet(K); test: MIC assay, SA158; format: cell-based
[7] = test system: Streptococcus pneumoniae SP160, tetracycline-resistant, tet(M); test: MIC assay, SP160; format: cell-based
in vivo = conditions: Sprague-Dawley, rat
[8] = test system: S. aureus strains collected from various geographical sources; test: MIC50 and MIC90 analysis (Example 22)
Method: (§5) Frozen bacterial strains were thawed and subcultured onto Mueller Hinton Broth (MHB) or other appropriate media (Streptococcus requires blood and Haemophilus requires hemin and NAD). Following incubation overnight, the strains were subcultured onto Mueller Hinton Agar and again incubated overnight. […] Isolated colonies were selected to prepare a starting inoculum equivalent to a 0.5 McFarland standard. […] Antibiotics (stored frozen, thawed and used within 3 hours of thawing) and compounds were further diluted to the desired working concentrations.
(§6) The assays were run as follows. Fifty μL of MHB was added to wells 2-12 of a 96-well plate. One hundred μL of appropriately diluted antibiotic or compound was added to well 1. Fifty μL of antibiotics or compound was removed from well 1 and added to well 2 and the contents of well 2 mixed by pipetting up and down five times. Fifty μL of the mixture in well 2 was removed and added to well 3 and mixed as above. Serial dilutions were continued in the same manner through well 12. Fifty μL was removed from well 12 so that all contained 50 μL. Fifty μL of the working inoculum was then added to all test wells. A growth control well was prepared by adding 50 μL of working inoculum and 50 μL of MHB to an empty well. The plates were then incubated at 37° C. overnight, removed from the incubator and each well was read on a plate reading mirror. The lowest concentration (MIC) of test compound that inhibited the growth of the bacteria was recorded.
(§7) MIC, MIC50 and MIC90 values were determined according to CLSI methodology. S. pneumoniae and H. influenzae isolates were obtained from Eurofins-Medinet and are recent clinical isolates. S. aureus strains were collected from various geographical sources.

[9] = test system: Staphylococcus aureus SA161, HA-MRSA, tetracycline-resistant, tet(M); test: MIC assay, SA161; format: cell-based
[10] = test system: Enterococcus faecalis EF103, ATCC 29212; test: MIC assay, EF103; format: cell-based
[11] = test system: Streptococcus pneumoniae SP106, ATCC 49619; test: MIC assay, SP106; format: cell-based
[12] = test system: S. pneumoniae isolates (Eurofins-Medinet, recent clinical isolates); test: MIC50 and MIC90 analysis (Example 22)
Method: as §5, §6, §7

[13] = test system: S. pneumoniae clinical isolates; test: MIC50, MIC90 and MIC range, panel of clinical isolates (Example 20); format: cell-based; conditions: 19 isolates, in µg/mL
Method: as §1
(§3) Both values, as well as the MIC range (the lowest and highest MIC value observed for a collection of organisms), were determined for the isolates listed in Table 3.

[14] = test system: S. aureus clinical isolates; test: as above; format: cell-based; conditions: MRSA, 30 isolates; in µg/mL
Method: as §1, §3

[15] = test system: E. faecalis clinical isolates; test: as above; format: cell-based; conditions: 24 isolates, in µg/mL
Method: as §1, §3

[16] = test system: Enterobacter cloacae EC108, ATCC 13047; test: MIC assay, EC108; format: cell-based; conditions: ATCC13047, Table 9, read-out: MIC Enterobacter cloaceae ATCC 13047
[17] = test system: Escherichia coli EC155, tetracycline-resistant, tet(A); test: MIC assay, EC155; format: cell-based
[18] = test system: Klebsiella pneumoniae KP153, tetracycline-resistant, tet(A), MDR, ESBL+; test: MIC assay, KP153; format: cell-based; conditions: Table 9, read-out: MIC Klebsiella pneum KP153 (tet)A
[19] = test system: H. influenzae isolates (Eurofins-Medinet, recent clinical isolates); test: MIC50 and MIC90 analysis (Example 22)
Method: as §5, §6, §7

E. coli ATCC 25922 = test: Mouse systemic infection model, E. coli septicemia; conditions: survival after 48 hours
[20] = test system: E. coli DH10B(pBAD-tetM), expressing tet(M); test: MIC against recombinant E. coli expressing tet(M); format: cell-based; conditions: for MIC: Escherichia coli
From the text: (§4) Constructs were transformed into E. coli DH10B for expression. Recombinant strains were pre-induced under optimized conditions with L-arabinose prior to use as inocula in CLSI standardized MIC assays.

[21] = test system: E. coli DH10B(pBAD-tetK), expressing tet(K); test: MIC against recombinant E. coli expressing tet(K); format: cell-based; conditions: for MIC: Escherichia coli
From the text: as §4

[22] = Pharmacokinetic analysis in Sprague-Dawley rats; conditions: IV, single dose 1 mg/kg, mean
[23] = test system: Staphylococcus aureus SA100, ATCC 13709, MSSA, Smith strain; test: MIC assay, SA100; format: cell-based

## CN(C)CC(C)(C)CNc1nc(Cl)c2c(c1O)C(=O)C1=C(O)[C@]3(O)C(=O)C(C(N)=O)=C(O)[C@@H](N(C)C)[C@@H]3C[C@@H]1C2 [Compound 151]
[1]
  MIC: ≤ 0.25 µg/mL
[2]
  MIC: ≤ 4 µg/mL
[3]
  MIC: ≤ 1 µg/mL
[4]
  MIC: ≤ 8 µg/mL
[5]
  MIC: 2 µg/mL (≈ 3.46 µM)
[6]; Table 8, read-out: MIC S. aureus tetK
  MIC: 0.13 µg/mL (≈ 0.225 µM)
[6]; Table 9, read-out: MIC S. aureus SA158 (tet)K
  MIC: 0.125 µg/mL (≈ 0.216 µM)
[7]; Table 8, read-out: MIC S. pneumoniae tetM
  MIC: 0.5 µg/mL (≈ 0.865 µM)
[7]; Table 9, read-out: MIC S. pneum SP160 (tet)M
  MIC: 0.125 µg/mL (≈ 0.216 µM)
In vivo; iv, 1 mg/kg
  AUC(0-t): 4870 ng·h/mL
  Cmax: 2400 ng/mL
  Tmax: 13.2 min
In vivo; oral, 10 mg/kg
  bioavailability: 0.8%
In vivo; po, 10 mg/kg
  AUC(0-t): 395 ng·h/mL
  Cmax: 69.8 ng/mL
  Tmax: 49.8 min
  half-life: 313 min
[8]; S. aureus (n = 20)
  MIC Range: 0.063 to 0.5 µg/mL
[8]; Staphylococcus aureus
  MIC50: 0.13 µg/mL (≈ 0.225 µM)
  MIC90: 0.25 µg/mL (≈ 0.432 µM)
[9]; Table 8, read-out: MIC S. aureus MRSA, tetM
  MIC: 2 µg/mL (≈ 3.46 µM)
[9]; Table 9, read-out: MIC MRSA (tet)M SA161
  MIC: 2 µg/mL (≈ 3.46 µM)
[10]; Enterococcus faecalis, ATCC29212, Table 8, read-out: MIC E. faecalis ATCC 29212
  MIC: 0.25 µg/mL (≈ 0.432 µM)
[10]; Table 9
  MIC E. faecalis ATCC 29212: 0.25 µg/mL (≈ 0.432 µM)
[11]; ATCC49619, Table 8, read-out: MIC S. pneumoniae ATCC 49619
  MIC: 0.063 µg/mL (≈ 0.109 µM)
[11]; ATCC49619, Table 9, read-out: MIC S. pneum ATCC 49619
  MIC: 0.016 µg/mL (≈ 0.0277 µM)
[12]; S. pneumoniae (n = 20)
  MIC Range: ≦0.016-0.063 μg/ml
[12]; Streptococcus pneumoniae
  MIC50: ≤ 0.016 µg/mL
  MIC90: 0.063 µg/mL (≈ 0.109 µM)
[13]
  MIC Range: <=0.016-0.25
[14]
  MIC Range: 0.5-8
[15]
  MIC Range: 0.031-4
[16]
  MIC: 2 µg/mL (≈ 3.46 µM)
[17]; Table 8, read-out: MIC E. coli tetA
  MIC: 8 µg/mL (≈ 13.8 µM)
[17]; Table 9, read-out: MIC E. coli EC155 (tet)A
  MIC: 8 µg/mL (≈ 13.8 µM)
[18]
  MIC: 8 µg/mL (≈ 13.8 µM)
[19]; H. influenzae (n = 12)
  MIC Range: 0.25 to 2 µg/mL
[19]; Haemophilus influenzae
  MIC50: 1 µg/mL (≈ 1.73 µM)
  MIC90: 1 µg/mL (≈ 1.73 µM)
E. coli ATCC 25922; CD-1 mice, IP infection, treatment one hour post-challenge
  PD50 in the mouse septicemia model against E. coli: 17.0 mg/kg
E. coli ATCC 25922; mouse septicemia, E. coli ATCC 25922, treatment one hour post-challenge
  PD50: 17.0 mg/kg
[20]; read-out: MIC, TetM induced
  MIC: 1 µg/mL
[20]; read-out: MIC, Uninduced
  MIC: 0.5 µg/mL
[20]; ratio of MICs
  Ratio (TetM induced / Uninduced): 2
[20]; result in words
  Effect of expression of (tet)M on activity: minimally affected
[21]; read-out: MIC, TetK Induced
  MIC: 1 µg/mL
[21]; read-out: MIC, Uninduced
  MIC: 1 µg/mL
[21]; ratio of TetK induced to uninduced MIC
  MIC ratio, TetK induced to uninduced: 1
[21]; result in words
  Effect of expression of (tet)K on activity: unaffected
[22]
  Clobs: 3.3723 mL/min/kg
  Vzobs: 1.25614 L/kg
  half-life: 258 min
[23]; Table 9, read-out: MIC S. aureus ATCC 13709
  MIC: 0.5 µg/mL (≈ 0.865 µM)
[23]; Table 12, read-out: MIC S. aureus ATCC 13709
  MIC: 0.5 µg/mL (≈ 0.865 µM)
